Consider 1 compound from US11000033B2, “Ketone or oxime compound, and herbicide” (NISSAN CHEMICAL CORPORATION, priority 2014, dated 2021).

Holding throughout (type): in vivo
For data set [1], the system named is Echinochloa oryzacola Vasing. The experiment in a line: Test Example 2: herbicidal activity, application during weed generation in submerged conditions (symbol A). The note with it: Table 23; application herbicide amount 320 g/ha; grade 0-5 by criteria of Test Example 1. The gist of the method:
(§1)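 Treatment timing was the one- to two-leaf stage, with diluted emulsifiable compound dropped onto the paddy water (depth 4 cm) over alluvial soil. All three species grew from a mixed sowing in a 25° C. to 30° C. greenhouse. Injury was judged by eye 3 weeks on.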

In the next data set the test system is Scirpus juncoides. The experiment in a line: Test Example 2: herbicidal activity, application during weed generation in submerged conditions (symbol B). The conditions noted are these: Table 23; application herbicide amount 320 g/ha; grade 0-5 by criteria of Test Example 1. The gist of the method:
as §1

For data set [2], the system named is Echinochloa crus-galli var. crus-galli. Briefly: Test Example 3: herbicidal effect by foliage application, Wagner pot (symbol H). The conditions noted are these: application herbicide amount 320 g/ha. The gist of the method:
(§2)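 The compound, formulated as an emulsion and diluted with water to a predetermined rate, is applied uniformly to leaves of two-week-old seedlings growing in submerged alluvial soil at 25–30 °C. Rice is included. Each plant is assessed 3 weeks later using defined criteria.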

For another data set, the system named is Leptochloa chinensis. The experiment in a line: Test Example 3: herbicidal effect by foliage application, Wagner pot (symbol D). The note with it: application herbicide amount 320 g/ha. The gist of the method: as §2
Data set [3] relates to Digitaria ciliaris. Briefly: Test Example 4: herbicidal effect by soil treatment (symbol F). The conditions noted are these: application herbicide amount 320 g/ha. The gist of the method:
(§3)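 Seeds were sown in sterilized diluvial soil, covered with about 1.5 cm of soil, and the soil surface was sprayed with a water-diluted emulsion of the compound at a predetermined rate. Plants grew in a greenhouse at 25° C. to 30° C.; effects were scored visually 3 weeks after application.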

The test system of data set [4] is Echinochloa crus-galli var. crus-galli. Briefly: Test Example 4: herbicidal effect by soil treatment (symbol H). The note with it: application herbicide amount 320 g/ha. A digest of the protocol: as §3
A further data set concerns Lolium multiflorum Lam. Briefly: Test Example 4: herbicidal effect by soil treatment (symbol K). The note with it: application herbicide amount 320 g/ha. A digest of the protocol: as §3
The next data set concerns Apera spica-venti. The experiment in a line: Test Example 4: herbicidal effect by soil treatment (symbol L). The note with it: application herbicide amount 320 g/ha. A digest of the protocol: as §3
A further data set concerns Abutilon theophrasti. Briefly: Test Example 4: herbicidal effect by soil treatment (symbol M). The conditions noted are these: application herbicide amount 320 g/ha. A digest of the protocol:
as §3

For data set [5], the system named is Amaranthus retroflexus. The experiment in a line: Test Example 4: herbicidal effect by soil treatment (symbol N). The conditions noted are these: application herbicide amount 320 g/ha. The gist of the method: as §3
The next data set concerns rapeseed. Briefly: Test Example 4: effect on crop by soil treatment (symbol g). The note with it: application herbicide amount 320 g/ha. A digest of the protocol:
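Diluvial soil (sterilized) in boxes; seeds placed spot-wise alongside weed species; ~1.5 cm covering soil. Greenhouse, 25–30° C.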

The subject of data set [6] is Digitaria ciliaris. Briefly: Test Example 5: herbicidal effect by foliage application, plastic box (symbol F). The note with it: 320 g/ha, 3 weeks after application. The gist of the method:
(§4)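 Leaf-applied emulsion, water-diluted to a preset herbicide dose, on two-week-old seedlings raised in a 25° C. to 30° C. greenhouse; injury rated at 3 weeks using earlier criteria.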

The next data set concerns Avena fatua. The experiment in a line: Test Example 5: herbicidal effect by foliage application, plastic box (symbol I). The note with it: 320 g/ha, 3 weeks after application. The gist of the method:
as §4

Data set [7] relates to Amaranthus retroflexus. Briefly: Test Example 5: herbicidal effect by foliage application, plastic box (symbol N). The conditions noted are these: 320 g/ha, 3 weeks after application. A digest of the protocol:
as §4

In the next data set the test system is Chenopodium album. Briefly: Test Example 5: herbicidal effect by foliage application, plastic box (symbol O). The conditions noted are these: 320 g/ha, 3 weeks after application. The gist of the method:
as §4

For a further data set, the system named is Stellaria media. The experiment in a line: Test Example 5: herbicidal effect by foliage application, plastic box (symbol P). The note with it: 320 g/ha, 3 weeks after application. A digest of the protocol: as §4
For the next data set, the system named is Veronica persica. Briefly: Test Example 5: herbicidal effect by foliage application, plastic box (symbol R). The note with it: 320 g/ha, 3 weeks after application. A digest of the protocol:
as §4

The test system of a further data set is rice plant. The experiment in a line: Test Example 5: effect on crop by foliage application, plastic box (symbol b). The note with it: 320 g/ha, 3 weeks after application. A digest of the protocol:
(§5)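 Plants were raised from seed in a greenhouse (25° C. to 30° C.) after sowing in a plastic box of sterilized diluvial soil.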

The test system of another data set is wheat. Briefly: Test Example 5: effect on crop by foliage application, plastic box (symbol e). The conditions noted are these: 320 g/ha, 3 weeks after application. The gist of the method:
as §5

A further data set concerns beet. The experiment in a line: Test Example 5: effect on crop by foliage application, plastic box (symbol f). The conditions noted are these: 320 g/ha, 3 weeks after application. The gist of the method:
as §5

With `CCOC(=O)C(C(=O)C(C)C)C1CC(O)=C(c2c(C)cc(C)cc2C)C1=O` (centres unmarked) [2-009], the “Herbicidal effect grade, A: Echinochloa oryzacola Vasing.” value in [1] is listed as 0 (Herbicidal ratio of 5% or lower (almost no effect)). For the same compound, the “Herbicidal effect grade, B: Scirpus juncoides” value with Scirpus juncoides is 0 (Herbicidal ratio of 5% or lower (almost no effect)). Moreover, the “herbicidal effect on H (Echinochloa crus-galli var. crus-galli), grade 0-5” value in data set [2] was 3 (Herbicidal ratio of 40% or higher and lower than 70%). Further, the “herbicidal effect on D (Leptochloa chinensis), grade 0-5” value in the data set on Leptochloa chinensis was 0 (Herbicidal ratio of 5% or lower (almost no effect)). In addition, the “F: Digitaria ciliaris, herbicidal effect grade” value is 2 (Herbicidal ratio of 20% or higher and lower than 40%) with Digitaria ciliaris [3]; 0 (Herbicidal ratio of 5% or lower (almost no effect)) with Digitaria ciliaris [6]. Further, in [4], the “H: Echinochloa crus-galli var. crus-galli, herbicidal effect grade” value was 1 (Herbicidal ratio of 5% or higher and lower than 20%). In addition, the “K: Lolium multiflorum Lam., herbicidal effect grade” value in the data set with Lolium multiflorum Lam. is 0 (Herbicidal ratio of 5% or lower (almost no effect)). Moreover, in the data set with Apera spica-venti, the “L: Apera spica-venti, herbicidal effect grade” value is 0 (Herbicidal ratio of 5% or lower (almost no effect)). The “M: Abutilon theophrasti, herbicidal effect grade” value with Abutilon theophrasti is on record as 0 (Herbicidal ratio of 5% or lower (almost no effect)). Also, the “N: Amaranthus retroflexus, herbicidal effect grade” value in the data set with Amaranthus retroflexus [5] and in the data set with Amaranthus retroflexus [7] was 0 (Herbicidal ratio of 5% or lower (almost no effect)) each time. The “g: rapeseed, effect on crop grade” value with rapeseed is 0 (Herbicidal ratio of 5% or lower (almost no effect)). Besides, in the data set with Avena fatua, the “I: Avena fatua, herbicidal effect grade” value is 0 (Herbicidal ratio of 5% or lower (almost no effect)). Further, the “O: Chenopodium album, herbicidal effect grade” value with Chenopodium album is listed as 0 (Herbicidal ratio of 5% or lower (almost no effect)). Moreover, in the data set with Stellaria media, the “P: Stellaria media, herbicidal effect grade” value is recorded as 0 (Herbicidal ratio of 5% or lower (almost no effect)). Further, the “R: Veronica persica, herbicidal effect grade” value with Veronica persica is 0 (Herbicidal ratio of 5% or lower (almost no effect)). Besides, the “b: directly sowed rice plant, effect on crop grade” value in the data set with rice plant was 4 (Herbicidal ratio of 70% or higher and lower than 90%). Moreover, the “e: wheat, effect on crop grade” value in the data set with wheat is 0 (Herbicidal ratio of 5% or lower (almost no effect)). Further, the “f: beet, effect on crop grade” value with beet is 0 (Herbicidal ratio of 5% or lower (almost no effect)).
